For test [1], the system named is Phytophthora infestans. The test can be described thus: whole plant or invertebrate. It counts as in vivo. As to conditions: in Solanum tuberosum, 120 h, read-out: P. infestans % inhibition.
Test [2] has as its system Albugo candida. As to the kind of experiment: Albugo candida on A. thaliana, syringe infiltration of compound, visual scoring of disease severity. It counts as in vivo. The note with it: in Arabidopsis thaliana, read-out: A. candida Inhibitory effect. As for the experimental part: (§1) A. thaliana seeds were stratified on moist soil (Einheitserde type A240, Stender, Germany) for seven days at 4° C. in darkness, before transfer into growth chambers with short day conditions (10 h light, 14 h darkness, 23/20° C., 60% humidity). After three weeks, seedlings were singularised and grown for three weeks further. After six weeks, A. thaliana plants were used for experiments and after infection they were transferred into SANYO (Panasonic MLR-352, Japan) growth cabinets (10 h light, 14 h darkness, 22/16° C.). Potato plants were grown from tubers by covering them with soil (Einheitserde type A240, Stender, Germany). The leaves of adult plants (˜4-6 weeks old) were cut off and kept in a moist environment for infection assays.
(§2) For regular Albugo sp. infections A. thaliana Ws-0 was sprayed with an Albugo sp. conidiospores solution. These spore solutions were prepared by harvesting sporulating leaf material at 14 days post infection (dpi) and adding water for rehydration of the spores. Spore solutions were hold on ice for ˜1 h, before filtering through miracloth (Merck Millipore, Germany) to remove dirt. Spores were counted and the solutions diluted to 22.2×10^4 conidiospores/ml. Albugo sp. spore solutions were sprayed uniformly on A. thaliana leaves (4.5 ml per six plants) using an airbrush gun. During spraying, plants were placed in a plastic bag and afterwards transferred into a cold room to incubate at 4° C. in darkness (˜16 h). The next morning, plants were transferred into plant growth cabinets, but left in clear bags to keep humidity high, which supports Albugo sp. infections. ˜24 h later plants were unbagged and further incubated under normal plant growth conditions.
(§3) Afterwards, the plants were kept in the lab for ˜1 h to let the leaves equilibrate again. The infiltrated plants were infected with Albugo sp., following the above-mentioned protocol. At 7 dpi, infiltrated leaves were phenotypically scored and harvested. The samples were frozen in liquid nitrogen and stored at −80° C. until DNA extraction for growth quantification via qPCR. For experiment 4, A. candida spore solutions were prepared as before and mixed with 10 mM stock solution of the test compound (100 μM end conc.). The mixture of spore solution and test compound was sprayed and incubated as for experiment 2 and 3.
(§4) • Fungicidal activity against other oomycetes was tested using isolates of the obligate biotrophic pathogen genus Albugo on Arabidopsis thaliana. The test compounds, 100 μM in 1% DMSO, were syringe infiltrated into adult A. thaliana and subsequently sprayed with aqueous spore solutions of Albugo laibachii or A. candida. In primary screenings, disease severity was visually screened and scored at nine days post infection (dpi) (Table 2+3).

Test [3] has as its system Pseudomonas syringae pv. tomato (Pto) DC3000. As to the kind of experiment: Bacterial liquid culture growth curves (OD600), Pto DC3000. The note with it: 18.5 h, read-out: Absolute growth rate relative to mock control, Pto DC3000.
The test system of test [4] is Rhodococcus sp. The test can be described thus: Bacterial liquid culture growth curves (OD600), Rhodococcus sp. As to conditions: 18.5 h, read-out: Absolute growth rate relative to mock control, Rhodococcus sp.
Test [5] relates to Albugo laibachii. The test can be described thus: Albugo laibachii growth on A. thaliana after syringe infiltration, quantified via qPCR. The class given is in vivo. The note with it: for inhibition at 100 µM: Albugo laibachii, in Arabidopsis thaliana, qPCR at 7 dpi, A. thaliana; for inhibition of A. laibachii growth (in words): Table 4, qPCR at 7 dpi, p 5 0.05. For orientation: Quantitative PCR measures a nucleic acid by following its amplification.

Test [6] deals with Albugo candida. The test can be described thus: Albugo candida growth on A. thaliana after syringe infiltration, quantified via qPCR. The class given is in vivo. As to conditions: for inhibition at 100 µM: Albugo candida, in Arabidopsis thaliana, qPCR at 7 dpi, A. thaliana; for inhibition of A. candida growth (in words): Table 4, qPCR at 7 dpi.
Test [7] relates to Albugo laibachii. The test can be described thus: Albugo laibachii on A. thaliana, syringe infiltration of compound, visual scoring of disease severity. It counts as in vivo. The note with it: in Arabidopsis thaliana, 100 μM in 1% DMSO syringe infiltrated into adult A. thaliana, visually scored at nine dpi, read-out: A. laibachii Inhibitory effect. As to the method: as §1, §2, §3, §4

For test [8], the system named is A. candida. The test can be described thus: A. candida growth on A. thaliana after spray application of spore solution mixed with compound, qPCR. It counts as in vivo, Albugo candida. The note with it: for inhibition at 100 µM: Candida, in Arabidopsis thaliana, spray application of spore solution mixed with 100 μM compound in 1% DMSO, qPCR at 7 dpi, A. thaliana.
The subject of test [9] is P. infestans. The test can be described thus: whole plant or invertebrate. As to conditions: Phytophthora infestans, in Solanum tuberosum, read-out: P. infestans % inhibition. It counts as in vivo.
Test [10] has as its system Phakopsora pachyrhizi. As to the kind of experiment: Soybean rust on soybean (Glycine max) leaves, syringe infiltration of compound, visual scoring. It counts as in vivo. As to conditions: 100 μM in 1% DMSO syringe infiltrated into adult G. max, visually scored at nine dpi, read-out: P. pachyrhizi Inhibitory effect. As to the method: Soybean plants were grown from pregerminated soybeans by putting them 1 cm deep into soil (Einheitserde type A240, Stender, Germany). Plants were grown in growth cabinets (16h light at 400 μM/m^2s and 22-24° C.-8h dark at 21-22° C.). 14 days after soil planting, plants were used for infection and experiments. Following inoculation with rust spores, plants were transferred back to growth cabinet prior to symptom screening.
Infiltration was always done through somata at the lower site of the leaf under light conditions to ensure stomata are open. Afterwards, the plants were kept in the growth cabinet for ˜1 h to let the leaves equilibrate again. The infiltrated plants were inoculated with Soybean rust spores using an airbrush and 0.01% Tween20 to ensure homogenous wetting. Plants were afterwards incubated for 24h in the dark at 24° C. and 100% humidity. At 9 dpi, infiltrated leaves were phenotypically scored.
• Fungicidal activity against Soybean rust was tested using a highly virulent stain of Phakopsora pachyrhizi and commercially available Soybeans.
The test compounds, […] 100 μM in 1% DMSO, were syringe infiltrated into adult G. max plants and subsequently sprayed with aqueous spore solutions and 0.01% Tween. In primary screenings, disease severity was visually screened and scored at nine days post infection (dpi) (Table 8).

Where a name gives a salt, the structure may show the parent alone.

With `Oc1ccc(-c2cc(-c3cc(O)c(O)c(O)c3)n[nH]2)cc1O` [Compound 5, 5-(3,4-Dihydroxyphenyl)-3-(3,4,5-trihydroxyphenyl)-1H-pyrazole], the inhibition at 100 µM in test [1] is 89%; in [2], greater than 70%. Moreover, the activity at 100 µM in test [3] worked out at 40%; in [4], 64%.

Regarding `COc1ccc(-c2cc(-c3ccc(OC)c(OC)c3)on2)cc1` [Compound 19, 5-(3,4-Dimethoxyphenyl)-3-(4-methoxyphenyl)isoxazole], the inhibition at 100 µM in test [1] was 26%; in test [2], greater than 70%; in test [5] it was 59%; in [6], 70%. Moreover, the “inhibition of A. laibachii growth (in words)” value in test [5] is given as “significantly inhibited”. The activity at 100 µM in test [3] came out at 95%; in test [4], 58%. Moreover, in [6], the “inhibition of A. candida growth (in words)” value was “strong inhibition”.

Turning to `Oc1ccc(-c2cc(-c3ccc(O)c(O)c3)on2)cc1` [Compound 22, 5-(3,4-Dihydroxyphenyl)-3-(4-hydroxyphenyl)isoxazole], the inhibition at 100 µM in test [7] is greater than 70%; in test [1] it was 63%; in test [5], 49%; in test [6], 53%. In test [5], the “inhibition of A. laibachii growth (in words)” value is given as “significantly inhibited”. Further, in test [6], the “inhibition of A. candida growth (in words)” value is “strong inhibition”.

On to `Br.Oc1ccc(-c2noc(-c3ccc(O)c(O)c3)n2)cc1O` [Compound 24, 3,5-Bis(3,4-Dihydroxyphenyl)-1,2,4-oxadiazole hydrobromide], for which the inhibition at 100 µM in [1] is 80%; in test [2], greater than 70%; in [5], 16%; in [6], 80%; in test [8] it was 41%. For the same compound, the values for the activity at 100 µM in [3] and in [4] were 95% and 19%, respectively. For the same compound, the “inhibition of A. candida growth (in words)” value in test [6] was “strong inhibition”.

In the case of `Oc1ccc(-c2c[nH]c(-c3ccc(O)c(O)c3)n2)cc1O` [Compound 28, 2,4-Bis(3,4-dihydroxyphenyl)-1H-imidazole hydrobromide], the inhibition at 100 µM is 30 to 70% in [7], 30% in test [1], 4% in test [5] and 49% in test [6]. The activity at 100 µM in test [3] was found to be 49%; in test [4] it was 71%.

For `Br.Oc1ccc(-c2cc(-c3ccc(Cl)cc3)[nH]n2)cc1` [Compound 36, 5-(4-Chlorophenyl)-3-(4-hydroxyphenyl)-1H-pyrazole hydrobromide], the inhibition at 100 µM is 95% in test [1], greater than 70% in test [2], 85% in test [9] and 94% in test [8]. In addition, the activity at 100 µM worked out at 104% in test [3] and 9% in [4]. In addition, in test [8] (Table 5, spore solution mixed with compound, sprayed), the “growth inhibition of A. candida (in words)” value was “strong growth inhibition”.

Turning to `COc1ccc(-c2cc(-c3ccc(OC)c(OC)c3)on2)cc1OC` [Compound 43, 3,5-Bis(3,4-dimethoxyphenyl)isoxazole], in test [2], the inhibition at 100 µM was greater than 70%. The activity at 100 µM was 114% in test [3] and 75% in test [4].

Take `CCc1ccc(-c2cc(-c3cccc(NC(=O)[C@@H](N)CO)c3)[nH]n2)cc1` [Compound 129, (2S)-2-Amino-N-{3-[3-(4-ethylphenyl)-1H-pyrazol-5-yl]phenyl}-3-hydroxypropanamide hydrochloride]: the inhibition at 100 µM in test [10] is greater than 70%; in [9] it was 97%.

Turning to `O=C(c1ccc(-c2cc(-c3ccc(F)cc3)[nH]n2)cc1)N1CCOCC1` [Compound 143, {4-[5-(4-Fluorophenyl)-1H-pyrazol-3-yl]phenyl}(morpholin-4-yl)methanone], the results for the inhibition at 100 µM in test [10] and in test [9] were 5 to 30% and 94%, respectively.
